Measured values taken from the CheMixHub ionic liquid set.

Test: xn = mol fraction of the nth substance listed
Conditions: 101 kPa

COCCn1cc[n+](C)c1.N#C[S-] + CC1COC(=O)O1
Conditions	electrical conductivity [S/m]	viscosity [mPa·s]
288.15 K, x1 = 0.1022	0.963	4.19
288.15 K, x1 = 0.2001	1.05	5.1
288.15 K, x1 = 0.3021	0.967	7.1
288.15 K, x1 = 0.3996	0.843	11
288.15 K, x1 = 0.5012	0.717	15.9
288.15 K, x1 = 0.6015	0.586	22.3
288.15 K, x1 = 0.7032	0.471	34.5
288.15 K, x1 = 0.8004	0.381	50
288.15 K, x1 = 0.9002	0.286	68
288.15 K, x1 = 1	0.223	86
293.15 K, x1 = 0.1022	1.07	3.54
293.15 K, x1 = 0.2001	1.23	4.31
293.15 K, x1 = 0.3021	1.12	6.1
293.15 K, x1 = 0.3996	0.984	9.2
293.15 K, x1 = 0.5012	0.84	12.7
293.15 K, x1 = 0.6015	0.709	17.5
293.15 K, x1 = 0.7032	0.578	26.2
293.15 K, x1 = 0.8004	0.48	37.8
293.15 K, x1 = 0.9002	0.382	51
293.15 K, x1 = 1	0.315	67
298.15 K, x1 = 0.1022	1.19	3.05
298.15 K, x1 = 0.2001	1.4	3.71
298.15 K, x1 = 0.3021	1.3	5.3
298.15 K, x1 = 0.3996	1.16	7.8
298.15 K, x1 = 0.5012	1	10.4
298.15 K, x1 = 0.6015	0.844	14
298.15 K, x1 = 0.7032	0.714	20.3
298.15 K, x1 = 0.8004	0.591	29
298.15 K, x1 = 0.9002	0.492	39.7
298.15 K, x1 = 1	0.41	53
303.15 K, x1 = 0.1022	1.31	2.67
303.15 K, x1 = 0.2001	1.59	3.27
303.15 K, x1 = 0.3021	1.49	4.67
303.15 K, x1 = 0.3996	1.33	6.6
303.15 K, x1 = 0.5012	1.16	8.6
303.15 K, x1 = 0.6015	1.01	11.3
303.15 K, x1 = 0.7032	0.849	16.1
303.15 K, x1 = 0.8004	0.717	22.8
303.15 K, x1 = 0.9002	0.602	31.3
303.15 K, x1 = 1	0.52	42.1
308.15 K, x1 = 0.1022	1.44	2.38
308.15 K, x1 = 0.2001	1.79	2.91
308.15 K, x1 = 0.3021	1.69	4.11
308.15 K, x1 = 0.3996	1.53	5.7
308.15 K, x1 = 0.5012	1.34	7.2
308.15 K, x1 = 0.6015	1.17	9.4
308.15 K, x1 = 0.7032	1	13
308.15 K, x1 = 0.8004	0.867	18.2
308.15 K, x1 = 0.9002	0.749	25
308.15 K, x1 = 1	0.653	34.4
313.15 K, x1 = 0.1022	1.58	2.14
313.15 K, x1 = 0.2001	2	2.59
313.15 K, x1 = 0.3021	1.91	3.65
313.15 K, x1 = 0.3996	1.75	4.9
313.15 K, x1 = 0.5012	1.53	6.2
313.15 K, x1 = 0.6015	1.36	7.9
313.15 K, x1 = 0.7032	1.19	10.8
313.15 K, x1 = 0.8004	1.02	14.8
313.15 K, x1 = 0.9002	0.893	20.5
313.15 K, x1 = 1	0.795	28.6
318.15 K, x1 = 0.1022	1.72	1.94
318.15 K, x1 = 0.2001	2.21	2.36
318.15 K, x1 = 0.3021	2.14	3.3
318.15 K, x1 = 0.3996	1.97	4.28
318.15 K, x1 = 0.5012	1.75	5.3
318.15 K, x1 = 0.6015	1.55	6.7
318.15 K, x1 = 0.7032	1.36	9.1
318.15 K, x1 = 0.8004	1.2	12.3
318.15 K, x1 = 0.9002	1.07	17.1
318.15 K, x1 = 1	0.954	23.7
323.15 K, x1 = 0.1022	1.86	1.78
323.15 K, x1 = 0.2001	2.43	2.16
323.15 K, x1 = 0.3021	2.37	2.97
323.15 K, x1 = 0.3996	2.19	3.77
323.15 K, x1 = 0.5012	1.97	4.62
323.15 K, x1 = 0.6015	1.78	5.8
323.15 K, x1 = 0.7032	1.57	7.7
323.15 K, x1 = 0.8004	1.4	10.3
323.15 K, x1 = 0.9002	1.24	14.3
323.15 K, x1 = 1	1.12	20
328.15 K, x1 = 0.1022	2.02	1.65
328.15 K, x1 = 0.2001	2.67	1.99
328.15 K, x1 = 0.3021	2.62	2.68
328.15 K, x1 = 0.3996	2.43	3.33
328.15 K, x1 = 0.5012	2.21	4.05
328.15 K, x1 = 0.6015	1.99	5
328.15 K, x1 = 0.7032	1.78	6.6
328.15 K, x1 = 0.8004	1.6	8.8
328.15 K, x1 = 0.9002	1.45	12.1
328.15 K, x1 = 1	1.32	17.2
333.15 K, x1 = 0.1022	2.17	1.54
333.15 K, x1 = 0.2001	2.9	1.85
333.15 K, x1 = 0.3021	2.88	2.42
333.15 K, x1 = 0.3996	2.68	3
333.15 K, x1 = 0.5012	2.45	3.57
333.15 K, x1 = 0.6015	2.24	4.38
333.15 K, x1 = 0.7032	2.02	5.8
333.15 K, x1 = 0.8004	1.83	7.5
333.15 K, x1 = 0.9002	1.65	10.4
333.15 K, x1 = 1	1.51	14.8
